Measured values: patent US10913744B2, “LRRK2 inhibitors and methods of making and using the same” (Dana-Farber Cancer Institute, Inc., priority 2015, dated 2021)
Where two headings read alike, the source gives them in different places.

What was measured:
wild type LRRK2 = wild type LRRK2 (Homo sapiens (Human), UniProt Q5S007); assay: LRRK2 enzyme kinase assay, wild type; type: biochemical
LRRK2[G2019S] = LRRK2[G2019S] (Homo sapiens (Human), UniProt Q5S007, G2019S); assay: LRRK2 enzyme kinase assay, G2019S; type: biochemical
Chain of LRRK2[G2019S] (Q5S007 1326-2527 G2019S): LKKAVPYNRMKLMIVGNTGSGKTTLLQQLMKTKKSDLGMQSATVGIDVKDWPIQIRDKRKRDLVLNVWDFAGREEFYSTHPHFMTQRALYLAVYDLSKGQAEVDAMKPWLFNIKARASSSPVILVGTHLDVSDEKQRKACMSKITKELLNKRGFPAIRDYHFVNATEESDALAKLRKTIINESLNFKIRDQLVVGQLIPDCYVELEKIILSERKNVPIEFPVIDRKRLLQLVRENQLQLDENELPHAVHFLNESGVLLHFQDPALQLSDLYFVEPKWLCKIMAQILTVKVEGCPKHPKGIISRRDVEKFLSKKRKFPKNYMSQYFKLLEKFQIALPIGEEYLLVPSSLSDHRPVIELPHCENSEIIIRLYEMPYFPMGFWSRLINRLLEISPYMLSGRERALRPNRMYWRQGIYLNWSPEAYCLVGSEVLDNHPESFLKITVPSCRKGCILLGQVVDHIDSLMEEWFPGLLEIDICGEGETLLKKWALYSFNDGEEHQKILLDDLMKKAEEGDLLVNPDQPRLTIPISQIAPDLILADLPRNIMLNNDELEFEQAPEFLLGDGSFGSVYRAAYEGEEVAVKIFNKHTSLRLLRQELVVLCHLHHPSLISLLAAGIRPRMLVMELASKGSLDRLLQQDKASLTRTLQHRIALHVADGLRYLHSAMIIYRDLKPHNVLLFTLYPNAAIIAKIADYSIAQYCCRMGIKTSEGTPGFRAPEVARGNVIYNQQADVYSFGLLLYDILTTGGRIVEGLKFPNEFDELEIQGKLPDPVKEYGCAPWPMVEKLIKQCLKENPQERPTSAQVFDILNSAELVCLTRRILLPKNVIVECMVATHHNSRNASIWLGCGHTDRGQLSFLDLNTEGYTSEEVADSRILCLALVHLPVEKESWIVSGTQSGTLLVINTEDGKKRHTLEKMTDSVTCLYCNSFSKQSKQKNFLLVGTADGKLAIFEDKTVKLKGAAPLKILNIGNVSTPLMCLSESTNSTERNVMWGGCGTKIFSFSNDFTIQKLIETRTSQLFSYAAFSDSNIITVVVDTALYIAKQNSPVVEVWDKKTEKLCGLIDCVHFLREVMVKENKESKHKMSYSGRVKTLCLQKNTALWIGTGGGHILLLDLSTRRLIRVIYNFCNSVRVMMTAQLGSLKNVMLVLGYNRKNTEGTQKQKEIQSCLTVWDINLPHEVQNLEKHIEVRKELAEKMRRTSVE

LRRK2 [1] = conditions: G2019S LRRK2 transgenic mice, oral dosing; cited from earlier work
LRRK2 [2] = molecular target: LRRK2 (Mus musculus (Mouse), UniProt Q5S006); assay: Pharmacodynamic study, LRRK2 Ser910/Ser935 phosphorylation in mouse kidney, spleen and brain; type: in vivo
Chain of LRRK2 (Mus musculus (Mouse), UniProt Q5S006) (Q5S006 whole entry, looked up): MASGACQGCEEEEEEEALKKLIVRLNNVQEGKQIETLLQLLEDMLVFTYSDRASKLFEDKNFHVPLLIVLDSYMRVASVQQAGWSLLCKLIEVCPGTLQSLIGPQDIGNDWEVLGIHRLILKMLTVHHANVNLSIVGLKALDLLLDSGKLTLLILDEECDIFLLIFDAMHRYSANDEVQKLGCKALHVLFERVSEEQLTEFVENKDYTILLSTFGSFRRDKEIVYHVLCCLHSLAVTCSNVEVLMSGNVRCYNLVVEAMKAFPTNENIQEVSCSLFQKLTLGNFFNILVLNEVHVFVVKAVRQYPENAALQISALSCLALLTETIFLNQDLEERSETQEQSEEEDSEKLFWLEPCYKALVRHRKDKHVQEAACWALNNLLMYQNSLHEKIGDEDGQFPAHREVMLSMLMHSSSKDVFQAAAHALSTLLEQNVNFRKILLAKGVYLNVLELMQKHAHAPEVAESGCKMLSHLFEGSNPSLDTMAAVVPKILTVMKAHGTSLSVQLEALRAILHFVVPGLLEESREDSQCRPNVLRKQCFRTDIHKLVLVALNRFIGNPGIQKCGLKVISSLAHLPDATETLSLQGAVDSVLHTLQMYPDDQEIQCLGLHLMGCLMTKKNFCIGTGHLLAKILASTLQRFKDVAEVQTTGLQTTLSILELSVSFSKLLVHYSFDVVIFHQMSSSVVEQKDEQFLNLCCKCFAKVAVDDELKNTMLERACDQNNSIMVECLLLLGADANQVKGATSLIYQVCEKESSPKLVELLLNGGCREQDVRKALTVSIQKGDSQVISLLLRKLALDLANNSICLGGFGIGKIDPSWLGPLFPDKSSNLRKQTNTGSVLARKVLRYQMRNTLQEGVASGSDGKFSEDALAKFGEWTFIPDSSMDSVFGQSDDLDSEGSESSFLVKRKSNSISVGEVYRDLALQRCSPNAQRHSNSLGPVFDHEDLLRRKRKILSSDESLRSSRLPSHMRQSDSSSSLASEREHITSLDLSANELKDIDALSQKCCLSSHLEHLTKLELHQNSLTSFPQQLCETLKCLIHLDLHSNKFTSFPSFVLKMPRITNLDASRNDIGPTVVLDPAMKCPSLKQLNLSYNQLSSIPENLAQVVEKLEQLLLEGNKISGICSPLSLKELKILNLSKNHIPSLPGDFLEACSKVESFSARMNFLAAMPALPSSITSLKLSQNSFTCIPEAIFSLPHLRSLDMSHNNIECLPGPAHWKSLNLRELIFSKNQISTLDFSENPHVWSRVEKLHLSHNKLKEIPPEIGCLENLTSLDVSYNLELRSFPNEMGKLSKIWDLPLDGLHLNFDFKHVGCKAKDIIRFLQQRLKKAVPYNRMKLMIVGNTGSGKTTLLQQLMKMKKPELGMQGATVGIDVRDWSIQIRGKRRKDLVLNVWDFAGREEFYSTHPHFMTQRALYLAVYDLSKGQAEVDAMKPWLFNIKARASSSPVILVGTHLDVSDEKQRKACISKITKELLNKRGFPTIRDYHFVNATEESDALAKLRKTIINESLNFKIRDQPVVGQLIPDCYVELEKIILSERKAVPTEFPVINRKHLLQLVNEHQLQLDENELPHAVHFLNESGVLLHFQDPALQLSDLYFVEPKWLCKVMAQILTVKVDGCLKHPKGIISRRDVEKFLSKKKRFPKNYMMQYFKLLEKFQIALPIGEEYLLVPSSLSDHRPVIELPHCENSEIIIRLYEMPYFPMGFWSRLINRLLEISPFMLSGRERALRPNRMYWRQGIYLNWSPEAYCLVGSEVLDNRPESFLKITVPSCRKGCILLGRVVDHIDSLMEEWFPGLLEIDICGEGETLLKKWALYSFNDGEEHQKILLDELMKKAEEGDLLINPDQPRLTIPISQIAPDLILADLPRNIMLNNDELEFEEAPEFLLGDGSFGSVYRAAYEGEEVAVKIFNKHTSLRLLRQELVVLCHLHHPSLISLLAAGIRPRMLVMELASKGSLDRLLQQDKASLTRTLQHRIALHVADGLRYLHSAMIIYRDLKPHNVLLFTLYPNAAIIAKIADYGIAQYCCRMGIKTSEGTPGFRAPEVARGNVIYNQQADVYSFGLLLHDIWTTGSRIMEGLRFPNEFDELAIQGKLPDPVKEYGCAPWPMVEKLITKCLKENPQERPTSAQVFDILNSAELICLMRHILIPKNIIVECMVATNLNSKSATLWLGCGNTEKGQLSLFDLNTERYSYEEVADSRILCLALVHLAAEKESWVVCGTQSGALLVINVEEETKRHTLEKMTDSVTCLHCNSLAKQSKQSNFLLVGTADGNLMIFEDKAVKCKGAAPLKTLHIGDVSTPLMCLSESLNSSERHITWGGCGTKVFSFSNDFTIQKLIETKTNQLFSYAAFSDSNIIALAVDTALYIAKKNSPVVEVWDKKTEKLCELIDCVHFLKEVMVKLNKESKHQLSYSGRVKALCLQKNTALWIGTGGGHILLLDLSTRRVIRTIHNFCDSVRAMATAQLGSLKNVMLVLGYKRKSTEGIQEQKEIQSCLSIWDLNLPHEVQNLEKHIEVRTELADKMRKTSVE

[3] = molecular target: GST-LRRK2(1,326-2,517) wild-type (Homo sapiens (Human), UniProt Q5S007); assay: Nictide peptide kinase assay, 100 μM ATP; type: biochemical; conditions: 20 μM Nictide
Chain of GST-LRRK2(1,326-2,517) wild-type (Q5S007 1326-2527): as the sequence (Q5S007 1326-2527 G2019S) above, with S694G counted along it
Procedure: (§1) Assay procedures are further discussed in Section 4 herein.
(§2) Samples were washed extensively and the incorporation of [γ-32P]ATP into Nictide was quantified by Cerenkov counting. IC50 values were calculated with GraphPad Prism using non-linear regression analysis.

[4] = molecular target: GST-LRRK2[G2019S + A2016T](1,326-2,517) (Homo sapiens (Human), UniProt Q5S007, A2016T/G2019S); assay: Nictide peptide kinase assay, 100 μM ATP; type: biochemical; conditions: 20 μM Nictide
Chain of GST-LRRK2[G2019S + A2016T](1,326-2,517) (Q5S007 1326-2527 A2016T/G2019S): as the sequence (Q5S007 1326-2527 G2019S) above, with A691T counted along it
Procedure: as §1, §2

[5] = molecular target: GST-LRRK2[G2019S](1,326-2,527) (Homo sapiens (Human), UniProt Q5S007, G2019S); assay: Nictide peptide kinase assay, 100 μM ATP; type: biochemical; conditions: 20 μM Nictide
Chain of GST-LRRK2[G2019S](1,326-2,527) (Q5S007 1326-2527 G2019S): as the sequence (Q5S007 1326-2527 G2019S) above
Procedure: as §1, §2

[6] = molecular target: GST-LRRK2[A2016T](1326-2517) (Homo sapiens (Human), UniProt Q5S007, A2016T); assay: Nictide peptide kinase assay, 100 μM ATP; type: biochemical; conditions: 20 μM Nictide
Chain of GST-LRRK2[A2016T](1326-2517) (Q5S007 1326-2527 A2016T): as the sequence (Q5S007 1326-2527 G2019S) above, with A691T, S694G counted along it
Procedure: as §1, §2

[7] = Table 1, ATP at Km 36 μm, read-out: Enzyme IC50 wt
[8] = Table 3, read-out: Enzyme IC50 WT

Chain of wild type LRRK2 (Q5S007 1326-2527): as the sequence (Q5S007 1326-2527 G2019S) above, with S694G counted along it

Compound | IC50 (wild type LRRK2; [7]) | IC50 (LRRK2[G2019S]; Table 1, ATP at Km 112 μm) | also measured
CCNc1nc(Nc2ccc(C(=O)N3CCOCC3)cc2OC)nc2[nH]ccc12 [Compound 12] | 1.1 nM | 2.5 nM | 
CNc1nc(Nc2cc(F)c(C(=O)N3CCOCC3)cc2OC)nc2[nH]ccc12 [Compound 16] | 2.1 nM | 7.1 nM | 
COc1cc(C(=O)N2CCOCC2)ccc1Nc1ncc2cc[nH]c2n1 [Compound 10] | 34 nM | 40 nM | 
(3-methoxy-4-((4-(methylamino)-1H-pyrazolo[3,4-d]pyrimidin-6-yl)amino)phenyl)(morpholino)methanone [Compound 23] |  |  | IC50 (wild type LRRK2; [8]): 11.5 nM; IC50 (LRRK2[G2019S]; Table 3): 4 nM
CNc1nc(Nc2ccc(C(=O)N3CCOCC3)cc2OC)ncc1Cl [HG-10-102-01] |  |  | reduction of LRRK2 activity in brain (Ser935 phosphorylation) (LRRK2 [1]): significantly reduce LRRK2 activity in the brain
CCCNc1nc(Nc2ccc(C(=O)N3CCOCC3)cc2OC)nc2[nH]ccc12 [Compound 13] | 1.6 nM | 2.4 nM | 
COc1cc(C(=O)N2CCOCC2)ccc1Nc1nc(NC2CC2)c2cc[nH]c2n1 [Compound 15] | 2.4 nM | 4.7 nM | 
COc1cc(C(=O)N2CCOCC2)ccc1Nc1nc(NCC2CCCO2)c2cc[nH]c2n1 (stereo not shown) [Compound 14] | 3.3 nM | 4.4 nM | 
CCNc1nc(Nc2ccc(C(=O)N3CCOCC3)cc2OC)nc2[nH]cc(Cl)c12 [Compound 19] | 1.4 nM | 4.4 nM | 
N#Cc1cccc(-c2c[nH]c3ncnc(N4CCOCC4)c23)c1 [PF-06447474] |  |  | reduction of LRRK2 activity in brain (Ser935 phosphorylation) (LRRK2 [1]): capable of reducing LRRK2 activity in the brain
COc1cc(C(=O)N2CCOCC2)ccc1Nc1nc(OC)c2cc[nH]c2n1 [Compound 9, (3-methoxy-4-((4-methoxy-7H-pyrrolo[2,3-d]pyrimidin-2-yl)amino)phenyl) (morpholino)methanone] | 13.6 nM | 95.7 nM | 
CNc1nc(Nc2ccc(C(=O)N3CCOCC3)cc2OC)nc2[nH]cnc12 [Compound 21, (3-methoxy-4-((6-(methylamino)-9H-purin-2-yl)amino)phenyl)(morpholino) methanone] |  |  | IC50 (wild type LRRK2; [8]): 35 nM; IC50 (LRRK2[G2019S]; Table 3): 44 nM
COc1cc(C(=O)N2CCOCC2)ccc1Nc1ncc2c(Cl)c[nH]c2n1 [Compound 17] | 159 nM | 108 nM | 
COc1cc(C(=O)N2CCOCC2)ccc1Nc1nc(OC)c2nc[nH]c2n1 [Compound 22, (3-methoxy-4-((6-methoxy-9H-purin-2-yl)amino)phenyl)(morpholino)methanone] |  |  | IC50 (wild type LRRK2; [8]): 3 nM; IC50 (LRRK2[G2019S]; Table 3): 3 nM
CCNc1nc(Nc2cc(F)c(C(=O)N3CCOCC3)cc2OC)ncc1C(F)(F)F [GNE7915, reference compound] |  |  | reduction of LRRK2 activity in brain (Ser935 phosphorylation) (LRRK2 [1]): significantly reduce LRRK2 activity in the brain; dephosphorylation of Ser935 of LRRK2 in kidney, spleen and brain (LRRK2 [2]; 100 mg/kg, intraperitoneal): near complete dephosphorylation of Ser935 of LRRK2; dose at which complete inhibition in brain was observed (LRRK2 [2]; doses 10, 30, 50, 100 mg/kg): 100 mg/kg
CCCNc1nc(Nc2ccc(C(=O)N3CCOCC3)cc2OC)nc2[nH]cc(Cl)c12 [Compound 20] | 7.7 nM | 12.4 nM | 
COCCNc1nc(Nc2ccc(C(=O)N3CCOCC3)cc2OC)nc2[nH]ccc12 [Compound 11] | 4 nM | 3 nM | 
O=C(Nc1cccnc1)c1cc(-c2ccnc(F)c2)ccc1OCc1ccccc1 [GSK2578215A] |  |  | IC50 [3]: 10.9 nM; IC50 [4]: 61.3 nM; IC50 [5]: 8.9 nM; IC50 [6]: 81.1 nM
COc1cc(C(=O)N2CCC(N3CCN(C)CC3)CC2)ccc1Nc1ncc2c(n1)N(C)c1ccccc1C(=O)N2C [LRRK2-IN-1] |  |  | IC50 [3]: 13 nM; IC50 [4]: 3080 nM; IC50 [5]: 6 nM; IC50 [6]: 2450 nM
COc1cc(C(=O)N2CCOCC2)ccc1Nc1nc(OC)c2cn[nH]c2n1 [Compound 24, (3-methoxy-4-((4-methoxy-1H-pyrazolo[3,4-d]pyrimidin-6-yl)amino)phenyl) (morpholino)methanone] |  |  | IC50 (wild type LRRK2; [8]): 19.4 nM; IC50 (LRRK2[G2019S]; Table 3): 18.5 nM
